The record followed here is patent US8975401B2, “Quinazoline based EGFR inhibitors containing a zinc binding moiety” (Curis, Inc., priority 2006, dated 2015).

A value given as a limit tells only on which side of the number the result lay.

A word on the IC50: it is the concentration that gives 50% inhibition.

T1 sequence (P00533 672-1210): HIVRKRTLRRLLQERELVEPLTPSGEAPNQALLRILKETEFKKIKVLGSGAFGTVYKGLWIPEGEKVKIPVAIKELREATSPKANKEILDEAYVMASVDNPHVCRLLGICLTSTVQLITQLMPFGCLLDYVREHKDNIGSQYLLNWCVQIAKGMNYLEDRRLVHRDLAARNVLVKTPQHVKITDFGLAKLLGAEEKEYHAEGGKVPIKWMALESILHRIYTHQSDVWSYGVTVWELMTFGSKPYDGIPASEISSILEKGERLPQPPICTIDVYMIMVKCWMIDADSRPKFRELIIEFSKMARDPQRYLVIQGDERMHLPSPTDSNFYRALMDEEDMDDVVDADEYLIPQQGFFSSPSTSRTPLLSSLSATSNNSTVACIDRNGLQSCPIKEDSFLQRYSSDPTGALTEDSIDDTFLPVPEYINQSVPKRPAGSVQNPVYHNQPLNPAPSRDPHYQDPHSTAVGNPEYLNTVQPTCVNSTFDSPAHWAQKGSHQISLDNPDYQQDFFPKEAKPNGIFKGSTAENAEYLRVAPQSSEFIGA

This assay has as its target T1, human EGFR (His672-Ala1210) (Homo sapiens, UniProt P00533).
T1 construct: human EGFR (His672-Ala1210); GST (N); purchased Cell Signaling Technologies; host or cells: baculovirus expression system
Briefly: HTScan EGF Receptor Kinase Assay. Type of assay: biochemical. As to the method:
The ability of compounds to inhibit receptor kinase (EGFR) activity was assayed using HTSCAN™ EGF Receptor Kinase Assay Kits (Cell Signaling Technologies, Danvers, Mass.). […] The protein was purified by one-step affinity chromatography using glutathione-agarose.
Immediately transfer enzyme from −80° C. to ice. Allowed enzyme to thaw on ice. […] Returned immediately to ice. […] Incubated reaction plate at room temperature for 30 minutes. […] Added 100 μl/well primary antibody. Incubated at room temperature for 60 minutes. […] Added 100 μl/well diluted antibody. Incubated at room temperature for 30 minutes. […] Incubated at room temperature for 5 minutes.
`COc1cc2ncnc(Nc3ccc(F)c(Cl)c3)c2cc1OCC(=O)NO` [Compound 1, 2-(4-(3-Chloro-4-fluorophenylamino)-7-methoxyquinazolin-6-yloxy)-N-hydroxyacetamide]: the half-inhibitory concentration (IC50) is under 100 nM.
Compound `COc1cc2ncnc(Nc3ccc(F)c(Cl)c3)c2cc1OCCC(=O)NO` [Compound 2] came in with an IC50 of under 100 nM.
In turn, `COc1cc2ncnc(Nc3ccc(F)c(Cl)c3)c2cc1OCCCC(=O)NO` [Compound 3, 4-(4-(3-Chloro-4-fluorophenylamino)-7-methoxyquinazolin-6-yloxy)-N-hydroxybutanamide] showed an IC50 of under 100 nM.
As to `COc1cc2ncnc(Nc3ccc(F)c(Cl)c3)c2cc1OCCCCC(=O)NO` [Compound 4], the IC50 was under 100 nM.
Under `COc1cc2ncnc(Nc3ccc(F)c(Cl)c3)c2cc1OCCCCCC(=O)NO` [Compound 5] stands under 100 nM.
As for `C#Cc1cccc(Nc2ncnc3cc(OC)c(OCC(=O)NO)cc23)c1` [Compound 7, 2-(4-(3-ethynylphenylamino)-7-methoxyquinazolin-6-yloxy)-N-hydroxyacetamide], the IC50 is under 100 nM.
Then `C#Cc1cccc(Nc2ncnc3cc(OC)c(OCCC(=O)NO)cc23)c1` [Compound 8], with under 100 nM.
Then `C#Cc1cccc(Nc2ncnc3cc(OC)c(OCCCC(=O)NO)cc23)c1` [Compound 9, 4-(4-(3-ethynylphenylamino)-7-methoxyquinazolin-6-yloxy)-N-hydroxybutanamide], with under 100 nM; and `C#Cc1cccc(Nc2ncnc3cc(OC)c(OCCCCCC(=O)NO)cc23)c1` [Compound 11, 6-(4-(3-ethynylphenylamino)-7-methoxyquinazolin-6-yloxy)-N-hydroxyhexanamide], with under 100 nM.
The compound `O=C(COc1ccc2ncnc(Nc3ccc(F)c(Cl)c3)c2c1)NO` [Compound 13, 2-(4-(3-chloro-4-fluorophenylamino)quinazolin-6-yloxy)-N-hydroxyacetamide] came in with an IC50 of under 100 nM.
Under `O=C(CCOc1ccc2ncnc(Nc3ccc(F)c(Cl)c3)c2c1)NO` [Compound 14] stands under 100 nM; under `O=C(CCCCOc1ccc2ncnc(Nc3ccc(F)c(Cl)c3)c2c1)NO` [Compound 16, 5-(4-(3-chloro-4-fluorophenylamino)quinazolin-6-yloxy)-N-hydroxypentanamide], under 100 nM.
Then `O=C(CCCCCOc1ccc2ncnc(Nc3ccc(F)c(Cl)c3)c2c1)NO` [Compound 17, 6-(4-(3-chloro-4-fluorophenylamino)quinazolin-6-yloxy)-N-hydroxy hexanamide], with under 100 nM; and `O=C(CCCCCCOc1ccc2ncnc(Nc3ccc(F)c(Cl)c3)c2c1)NO` [Compound 18, 7-(4-(3-chloro-4-fluorophenylamino)quinazolin-6-yloxy)-N-hydroxyheptanamide], with under 100 nM; and `C#Cc1cccc(Nc2ncnc3ccc(OCC(=O)NO)cc23)c1` [Compound 19, 2-(4-(3-ethynylphenylamino)quinazolin-6-yloxy)-N-hydroxyacetamide], with under 100 nM.
`C#Cc1cccc(Nc2ncnc3ccc(OCCCC(=O)NO)cc23)c1` [Compound 21, 4-(4-(3-ethynylphenylamino)quinazolin-6-yloxy)-N-hydroxybutanamide]: the concentration for half-maximal inhibition (IC50) lay in the range of 100 to 1000 nM.
Under `C#Cc1cccc(Nc2ncnc3ccc(OCCCCC(=O)NO)cc23)c1` [Compound 22] stands under 100 nM; under `C#Cc1cccc(Nc2ncnc3ccc(OCCCCCC(=O)NO)cc23)c1` [Compound 23, 6-(4-(3-ethynylphenylamino)quinazolin-6-yloxy)-N-hydroxyhexanamide], 100 to 1000 nM; under `C#Cc1cccc(Nc2ncnc3ccc(OCCCCCCC(=O)NO)cc23)c1` [Compound 24, 7-(4-(3-ethynylphenylamino)quinazolin-6-yloxy)-N-hydroxyheptanamide], 100 to 1000 nM.
`COCCOc1cc2ncnc(Nc3ccc(F)c(Cl)c3)c2cc1OCCCCCCC(=O)NO` [Compound 30, 7-(4-(3-Chloro-4-fluorophenylamino)-7-(2-methoxyethoxy)quinazolin-6-yloxy)-N-hydroxyheptanamide] had an IC50 of under 100 nM.
Under `C#Cc1cccc(Nc2ncnc3cc(OCCOC)c(OCCCCCCC(=O)NO)cc23)c1` [Compound 36, 7-(4-(3-Ethynylphenylamino)-7-(2-methoxyethoxy)quinazolin-6-yloxy)-N-hydroxyheptanamide] stands under 100 nM.
Under `COc1cc2ncnc(Nc3ccc(F)c(Cl)c3)c2cc1NC(=O)CCCC(=O)NO` [Compound 38, N^1-(4-(3-chloro-4-fluorophenylamino)-7-methoxyquinazolin-6-yl)-N^5-hydroxyglutaramide] stands under 100 nM; under `COc1cc2ncnc(Nc3ccc(F)c(Cl)c3)c2cc1NC(=O)CCCCCCC(=O)NO` [Compound 40, N^1-(4-(3-chloro-4-fluorophenylamino)-7-methoxyquinazolin-6-yl)-N^8-hydroxyoctanediamide], under 100 nM; under `C#Cc1cccc(Nc2ncnc3cc(OC)c(NC(=O)CCCC(=O)NO)cc23)c1` [Compound 42, N^1-(4-(3-ethynylphenylamino)-7-methoxyquinazolin-6-yl)-N^5-hydroxyglutaramide], under 100 nM.
As for `C#Cc1cccc(Nc2ncnc3cc(OC)c(NC(=O)CCCCC(=O)NO)cc23)c1` [Compound 43, N^1-(4-(3-ethynylphenylamino)-7-methoxyquinazolin-6-yl)-N^6-hydroxyadipamide], the IC50 is under 100 nM.
Under `C#Cc1cccc(Nc2ncnc3cc(OC)c(NC(=O)CCCCCCC(=O)NO)cc23)c1` [Compound 44, N^1-(4-(3-ethynylphenylamino)-7-methoxyquinazolin-6-yl)-N^8-hydroxyoctanediamide] stands under 100 nM; under `Nc1cc(Br)ccc1NC(=O)COc1ccc2ncnc(Nc3ccc(F)c(Cl)c3)c2c1` [Compound 45], 100 to 1000 nM.
`C[C@@H](Nc1ncnc2ccc(OCCCCCC(=O)NO)cc12)c1ccccc1` [Compound 50]: the concentration for half-maximal inhibition (IC50) lay within 100 to 1000 nM.
Then `COc1cc2ncnc(Nc3ccc(F)c(Cl)c3)c2cc1OCCOc1ccc(/C=C/C(=O)NO)cc1` [Compound 66, (E)-3-(4-(2-(4-(3-chloro-4-fluorophenylamino)-7-methoxyquinazolin-6-yloxy)ethoxy)phenyl)-N-hydroxyacrylamide], with under 100 nM; and `COCCOc1cc2ncnc(Nc3ccc(F)c(Cl)c3)c2cc1NC(=O)CCCC(=O)NO` [Compound 68, N^1-(4-(3-chloro-4-fluorophenylamino)-7-(2-methoxyethoxy)quinazolin-6-yl)-N^5-hydroxyglutaramide], with under 100 nM; and `COCCOc1cc2ncnc(Nc3ccc(F)c(Cl)c3)c2cc1NC(=O)CCCCC(=O)NO` [Compound 69, N^1-(4-(3-chloro-4-fluorophenylamino)-7-(2-methoxyethoxy)quinazolin-6-yl)-N^6-hydroxyadipamide], with under 100 nM.
Then `C#Cc1cc(Nc2ncnc3cc(OC)c(OCCCCCCC(=O)NO)cc23)ccc1F` [Compound 75, 7-(4-(3-ethynyl-4-fluorophenylamino)-7-methoxyquinazolin-6-yloxy)-N-hydroxyheptanamide], with under 100 nM; and `C#Cc1cc(Nc2ncnc3cc(OCCOC)c(OCCCCCCC(=O)NO)cc23)ccc1F` [Compound 76], with under 100 nM; and `COc1cc2ncnc(N[C@H](C)c3ccccc3)c2cc1OCCCCCC(=O)NO` [Compound 77, (R)—N-hydroxy-6-(7-methoxy-4-(1-phenylethylamino)quinazolin-6-yloxy)-hexanamide], with under 100 nM.
Then `COc1cc2ncnc(N[C@H](C)c3ccc(F)cc3)c2cc1OCCCCCCC(=O)NO` [Compound 81, (R)-7-(4-(1-(4-fluorophenyl)ethylamino)-7-methoxyquinazolin-6-yloxy)-N-hydroxyheptanamide], with 100 to 1000 nM.
`COc1cc2ncnc(N[C@H](C)c3ccc(Cl)cc3)c2cc1OCCCCCCC(=O)NO` [Compound 82, (R)-7-(4-(1-(4-chlorophenyl)ethylamino)-7-methoxyquinazolin-6-yloxy)-N-hydroxyheptanamide] came in with an IC50 of 100 to 1000 nM.
Under `COc1ccc([C@@H](C)Nc2ncnc3cc(OC)c(OCCCCCCC(=O)NO)cc23)cc1` [Compound 83, (R)—N-hydroxy-7-(7-methoxy-4-(1-(4-methoxyphenyl)ethylamino)quinazolin-6-yloxy)-heptanamide] stands over 10000 nM; under `COc1cc2ncnc(NCCc3ccccc3)c2cc1OCCCCCCC(=O)NO` [Compound 84], 100 to 1000 nM; under `COc1cc2ncnc(NCc3ccc(F)c(F)c3)c2cc1OCCCCCCC(=O)NO` [Compound 87, 7-(4-(3,4-difluorobenzylamino)-7-methoxyquinazolin-6-yloxy)-N-hydroxyheptanamide], 100 to 1000 nM.
Then `COc1cc2ncnc(NCc3ccc(F)c(Cl)c3)c2cc1OCCCCCCC(=O)NO` [Compound 88, 7-(4-(3-chloro-4-fluorobenzylamino)-7-methoxyquinazolin-6-yloxy)-N-hydroxyheptanamide], with under 100 nM; and `COc1cc2ncnc(NCc3cccc(Br)c3)c2cc1OCCCCCCC(=O)NO` [Compound 89, 7-(4-(3-bromobenzylamino)-7-methoxyquinazolin-6-yloxy)-N-hydroxyheptanamide], with 100 to 1000 nM.
Under `COc1cc2ncnc(Nc3ccc(F)c(Cl)c3)c2cc1OCCOc1ccc(CC(=O)NO)cc1` [Compound 91] stands under 100 nM; under `COc1cc2ncnc(Nc3ccc(F)c(Cl)c3)c2cc1NC(=O)Nc1ccc(C(=O)NO)cc1` [Compound 93], under 100 nM.
In turn, `COc1cc2ncnc(Nc3ccc(F)c(Cl)c3)c2cc1OCCCCCCC(=O)N(C)O` [Compound 94] yielded an IC50 of under 100 nM.
